Data reported in US8633166B2, “Methicillin-resistant Staphylococcus aureus active metabolites” (priority 2009, dated 2014).
≈ marks a conversion by molar mass, not a printed value.

Columns and labels:
Format in all cases: cell-based
Enterococcus faecalis = assay: In vitro MIC, broth microdilution (CLSI)
Experimental: (§1) All test articles were dissolved in DMSO. Stock solutions were prepared at 40-fold the highest concentration in the test plate. The final concentration of DMSO in the test system was 2.5%.
(§2) The medium employed for the MIC assay was Mueller Hinton II Broth (MHB II-Becton Dickinson, #212322, Lot #9044411) for most of the organisms. MHB II was supplemented with 2% lysed horse blood (Cleveland Scientific Lot #22299-1) to accommodate the growth of Streptococcus pneumoniae, Streptococcus pyogenes and Streptococcus agalactiae. The media were prepared at 102.5% the normal weight to offset the dilution created by the addition of 5 μL drug solution to each well of the microdilution panels.
(§3) The MIC assay method followed the procedure described by the Clinical and Laboratory Standards Institute (see Clinical and Laboratory Standards Institute. Methods for Dilution Antimicrobial, Susceptibility Tests for Bacteria That Grow Aerobically; Approved Standard—Eighth Edition. CLSI document M07-A8 [ISBN 1-56238-689-1]. Clinical and Laboratory, Standards Institute, 940 West Valley Road, Suite 1400, Wayne, Pa. 19087-1898 USA, 2009) and employed automated liquid handlers to conduct serial dilutions and liquid transfers. Automated liquid handlers included the Multidrop 384 (Labsystems, Helsinki, Finland), Biomek 2000 and Multimek 96 (Beckman Coulter, Fullerton Calif.).
(§4) The wells of Columns 2-12 of standard 96-well microdilution plates (Falcon 3918) were filled with 150 μL of DMSO on the Multidrop 384. The drugs (300 μL) were dispensed into Column 1 of the appropriate row in these plates. These would become the mother plates from which the test plates (daughter plates) were prepared. The Biomek 2000 completed serial transfers through Column 11 in the mother plates. The wells of Column 12 contained no drug and were the organism growth control wells in the daughter plates. The daughter plates were loaded with 185 μL of the appropriate test media (described above) using the Multidrop 384. The daughter plates were prepared on the Multimek 96 instrument which transferred 5 μL of drug solution from each well of a mother plate to each corresponding well of each daughter plate in a single step. Therefore, the test agents were maintained in solution in 100% DMSO up until the point of being added to the final test medium.
(§5) Standardized inoculum of each organism was prepared per CLSI methods (See Clinical and Laboratory Standards Institute. Performance Standards for Antimicrobial Susceptibility Testing; Nineteenth Informational Supplement. CLSI document M100-S19 [ISBN 1-56238-690-5]. Clinical and Laboratory Standards Institute, 940 West Valley Road, Suite 1400, Wayne, Pa. 19087-1898 USA, 2009.). Suspensions were prepared in MHB to equal the turbidity of a 0.5 McFarland standard. The suspensions were diluted 1:9 in broth appropriate to the organism. The inoculum for each organism was dispensed into sterile reservoirs divided by width (Beckman Coulter), and the Biomek 2000 was used to inoculate the plates. Daughter plates were placed on the Biomek 2000 work surface reversed so that inoculation took place from low to high drug concentration. The Biomek 2000 delivered 10 μL of standardized inoculum into each well. This yielded a final cell concentration in the daughter plates of approximately 5×10^5 colony-forming-units/mL. Thus, the wells of the daughter plates ultimately contained 185 μL of broth, 5 μL of drug solution, and 10 μL of bacterial inoculum. The final concentration of DMSO in the assay plate was 2.5%.
(§6) Plates were stacked 3 high, covered with a lid on the top plate, placed in plastic bags, and incubated at 35° C. for approximately 18 hours for most of the isolates. The Streptococcus plates were read after 20 hours of incubation. The microplates were viewed from the bottom using a plate viewer. […] The MIC was read and recorded as the lowest concentration of drug that inhibited visible growth of the organism.

Enterococcus faecium = assay: In vitro MIC, broth microdilution (CLSI)
Experimental: as §1, §2, §3, §4, §5, §6

Staphylococcus aureus = assay: In vitro MIC, broth microdilution (CLSI)
Experimental: as §1, §2, §3, §4, §5, §6

[1] = test system: Staphylococcus epidermidis; assay: In vitro MIC, broth microdilution (CLSI)
Experimental: as §1, §2, §3, §4, §5, §6

Streptococcus agalactiae = assay: In vitro MIC, broth microdilution (CLSI); details: MHB II with 2% lysed horse blood
Experimental: as §1, §2, §3, §4, §5, §6

Streptococcus pneumoniae = assay: In vitro MIC, broth microdilution (CLSI); details: MHB II with 2% lysed horse blood
Experimental: as §1, §2, §3, §4, §5, §6

Streptococcus pyogenes = assay: In vitro MIC, broth microdilution (CLSI); details: MHB II with 2% lysed horse blood
Experimental: as §1, §2, §3, §4, §5, §6

enterococci = assay: In vitro MIC, for enterococci; details: E. faecalis and E. faecium, vancomycin-susceptible and vancomycin-resistant strains
Experimental: as §1
as §2, with “panels. […]” for “panels.”
as §6, with “incubation.” for “incubation. The microplates were viewed from the bottom using a plate viewer.”

Structure (SMILES): C[C@@H]1O[C@@H](Oc2c(-c3ccc(O)cc3)oc3cc(O)cc(O)c3c2=O)[C@H](OC(=O)/C=C/c2ccc(O)cc2)[C@H](OC(=O)/C=C/c2ccc(O)cc2)[C@H]1O [Compound 1, kaempferol 3-O-α-L-(2″,3″-di-E-p-coumaroyl)rhamnoside]
- MIC (Enterococcus faecalis; MMX 101, CLSI QC, ATCC 29212): 8 µg/mL (≈ 11 µM)
- MIC (Enterococcus faecalis; MMX 742, VSE, CHP): >8 µg/mL
- MIC (Enterococcus faecalis; MMX 3199, VSE, UCLA): 4 µg/mL (≈ 5.52 µM)
- MIC (Enterococcus faecalis; MMX 3821, VRE, Mt. Sinai): 4 µg/mL (≈ 5.52 µM)
- MIC (Enterococcus faecalis; MMX 3896, VSE, Mt. Sinai): 4 µg/mL (≈ 5.52 µM)
- MIC (Enterococcus faecalis; MMX 4131, VRE, CHP): 1 µg/mL (≈ 1.38 µM)
- MIC (Enterococcus faecalis; MMX 4160, VRE, UCLA): 4 µg/mL (≈ 5.52 µM)
- MIC (Enterococcus faecium; MMX 0799, VSE, CHP): >8 µg/mL
- MIC (Enterococcus faecium; MMX 0845, VSE, UCLA): 1 µg/mL (≈ 1.38 µM)
- MIC (Enterococcus faecium; MMX 1238, VRE, Mt. Sinai): 0.5 µg/mL (≈ 0.69 µM)
- MIC (Enterococcus faecium; MMX 1259, VSE, Mt. Sinai): >8 µg/mL
- MIC (Enterococcus faecium; MMX 4024, VRE, CHP): >8 µg/mL
- MIC (Enterococcus faecium; MMX 4048, VRE, UCLA): >8 µg/mL
- MIC (Staphylococcus aureus; MMX 100, CLSI QC, ATCC 29213): >8 µg/mL
- MIC (Staphylococcus aureus; MMX 753, MSSA, CHP): >8 µg/mL
- MIC (Staphylococcus aureus; MMX 758, MRSA, CHP): >8 µg/mL
- MIC (Staphylococcus aureus; MMX 2055, MRSA, UCLA): >8 µg/mL
- MIC (Staphylococcus aureus; MMX 2063, MSSA, UCLA): >8 µg/mL
- MIC (Staphylococcus aureus; MMX 3856, MSSA, Mt. Sinai): >8 µg/mL
- MIC (Staphylococcus aureus; MMX 3894, MRSA, Mt. Sinai): >8 µg/mL
- MIC ([1]; MMX 762, MRSE, CHP): >8 µg/mL
- MIC ([1]; MMX 826, MRSE, UCLA): 8 µg/mL (≈ 11 µM)
- MIC ([1]; MMX 835, MSSE, UCLA): 4 µg/mL (≈ 5.52 µM)
- MIC ([1]; MMX 3703, MSSE, CHP): 4 µg/mL (≈ 5.52 µM)
- MIC ([1]; MMX 3752, MRSE, Mt. Sinai): >8 µg/mL
- MIC ([1]; MMX 3763, MSSE, Mt. Sinai): 4 µg/mL (≈ 5.52 µM)
- MIC (Streptococcus agalactiae; MMX 3743, Mt. Sinai): >16 µg/mL
- MIC (Streptococcus agalactiae; MMX 4093, UCLA): >16 µg/mL
- MIC (Streptococcus agalactiae; MMX 4106, CHP): >16 µg/mL
- MIC (Streptococcus pneumoniae; MMX 748, PRSP, CHP): >16 µg/mL
- MIC (Streptococcus pneumoniae; MMX 866, PSSP, CHP): >16 µg/mL
- MIC (Streptococcus pneumoniae; MMX 1195, CLSI QC, ATCC 49619): >16 µg/mL
- MIC (Streptococcus pneumoniae; MMX 3130, PSSP, UCLA): >16 µg/mL
- MIC (Streptococcus pneumoniae; MMX 3160, PRSP, UCLA): >16 µg/mL
- MIC (Streptococcus pneumoniae; MMX 3937, PSSP, Mt. Sinai): >16 µg/mL
- MIC (Streptococcus pneumoniae; MMX 3953, PRSP, Mt. Sinai): >16 µg/mL
- MIC (Streptococcus pyogenes; MMX 718, CHP): >16 µg/mL
- MIC (Streptococcus pyogenes; MMX 2572, UCLA): >16 µg/mL
- MIC (Streptococcus pyogenes; MMX 3928, Mt. Sinai): >16 µg/mL
- activity against enterococci (enterococci): inhibited multiple strains
